Counter-ions that a name gives are not always drawn.
target: TDP-43 binding to purified human brain membranes (Homo sapiens, UniProt Q13148); assay: Inhibition of TDP-43 binding to purified human brain cell membranes (ELISA); conditions: TDP43/Membrane Activity (IC-50), TDP-43, purified human brain membranes
Procedure: Purified human brain cell membranes were prepared by differential centrifugation as follows. Five grams of frozen human brain postmortem tissue (obtained from University of Kentucky Alzheimer's Disease Center Tissue Bank) was homogenized in 50 ml HEPES-Buffered sucrose (0.32M sucrose, 4 mM HEPES pH7.4, protease inhibitors) with a motor driven glass-teflon homogenizer. After removing nuclear and cell debris by centrifugation of homogenates at 1,000×g for 10 min at 4 degree Celsius, post-nuclear supernatant was centrifuged at 100,000×g for 30 minutes to yield the crude membrane pellet. Crude membrane pellet was re-suspended in 0.32M sucrose, then centrifuged again at 100,000×g for 30 minutes to yield washed membrane pellet. Membrane pellet was resuspended in sterile PBS (pH7.4), quickly frozen, and kept in aliquots at −80 degrees Celsius. This preparation contains human brain cell membranes. Protein concentration was measured with BCA protein assay kit (Pierce Cat. No. 23227). Purified brain membranes were diluted to 0.01 mg/ml in PBS (pH 7.4) and then added to a 96 well polystyrene ELISA plate (NUNC Cat. No. 449824; 100 μl per well). Plates were incubated Over Night (ON) at 4 degrees Celsius. Following the incubation, the plate was washed consecutively, by immersion, with de-ionized water and PBS (pH 7.4). The ELISA plate was then blocked with nonfat milk (2%, 200 μl per well) for 2 hours at Room Temperature (RT). Following blocking, the plate was washed with de-ionized water then PBS (pH 7.4). GBAPs were dissolved and diluted in PBS (pH 6.5, supplemented with 0.1% BSA) at desired concentrations, added to the ELISA plates coated with brain membranes (100 μl per well) and incubated for 2 hours at RT with gentle shaking. Following incubation, the plate was washed with de-ionized water and three times with PBS (pH 6.5) plus Tween. Bound GBAP was detected by a monoclonal antibody specific for that GBAP, followed by incubation with secondary antibody conjugated to horseradish peroxidase (HRP). Antibody was diluted in PBS (pH6.5 supplemented with 1% BSA). Following each incubation with antibody, the plate was washed with de-ionized water and three times with PBS (pH6.5) wash buffer containing 0.1% Tween. The peroxidase substrate chromogen, TMB (Dako Cat. No. S1599) was added (100 μl per well) to the ELISA plate and incubated at room temperature. After 5 minutes ELISA Stop Solution (hydrochloric acid 1N, sulfuric acid 3N) was added (100 μl per well) to stop the peroxidase catalyzed colorimetric reaction. The Optical Density of the samples was measured at 450 nm using an ELISA plate reader (BioTek Synergy H1). Following color development, the % inhibition compared to control was determined. IC-50s were calculated using GraphPad Prism software.
The assay was performed as described in Example 49, with the following modifications. Following to coating the plates with purified human brain cell membranes, plates were washed as described. The compounds were dissolved in DMSO at 10 mM final concentration and further diluted prior to assay. DMSO concentration in the screening well was up to 2%. Individual compounds were co-incubated with TDP-43 on plates coated with brain membranes. TDP43 from R&D System (Cat. No. AP-190) was quickly frozen and kept in aliquots at −80 degrees Celsius. TDP-43 dissolved in PBS (pH 6.5, supplemented with BSA, 0.1%) was added to the ELISA plate (100 μl per well) and incubated for 2 hours at RT with gentle shaking. Following the incubation, the plate was washed with de-ionized water and three times with PBS (pH 6.5) plus Tween. Bound TDP-43 was detected by Anti-TDP43 Monoclonal Antibody (R&D System Cat. No. MAB7778), followed by secondary anti-IgG antibody conjugated to HRP (R&D System, Cat. No. HAF007). Following to color development with TMB, as described in Example 49, the Optical Density of the samples was measured at 450 nm using an ELISA plate reader. […]

Sequence of TDP-43 binding to purified human brain membranes (Q13148 whole entry): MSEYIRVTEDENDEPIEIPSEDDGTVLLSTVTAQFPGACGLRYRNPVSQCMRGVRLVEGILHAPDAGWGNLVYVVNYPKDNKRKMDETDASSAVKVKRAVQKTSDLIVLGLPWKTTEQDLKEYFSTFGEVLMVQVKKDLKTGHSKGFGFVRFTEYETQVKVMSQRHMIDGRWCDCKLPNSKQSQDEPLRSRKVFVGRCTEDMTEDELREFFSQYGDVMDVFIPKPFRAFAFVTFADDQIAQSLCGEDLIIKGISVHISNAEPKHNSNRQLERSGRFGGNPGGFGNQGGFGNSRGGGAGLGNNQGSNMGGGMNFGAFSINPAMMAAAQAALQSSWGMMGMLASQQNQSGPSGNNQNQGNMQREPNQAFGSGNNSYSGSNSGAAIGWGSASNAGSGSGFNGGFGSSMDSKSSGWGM

Compound | IC50 [µM]
Clc1ccc2c(N/N=C/c3ccc(-n4cccn4)cc3)ccnc2c1 [Compound 3, (E)-4-((E)-(4-(1H-pyrazol-1-yl)benzylidene)hydrazono)-7-chloro-1,4-dihydroquinoline] | 6.57
Fc1ccc2c(N/N=C/c3ccc(-n4ccnc4)cc3)ccnc2c1 [Compound 5, (E)-4-(2-(4-(1H-imidazol-1-yl)benzylidene)hydrazinyl)-7-fluoroquinoline] | 14.1
C(=N\Nc1ccc2c3c(cccc13)CC2)/c1ccc(-n2ccnc2)cc1 [Compound 8, (E)-1-(4-((2-(1,2-dihydroacenaphthylen-5-yl)hydrazineylidene)methyl)phenyl)-1H-imidazole] | 25.2
Clc1ccc2c(N/N=C/c3ccc(-n4ccnc4)nc3)ccnc2c1 [Compound 14, (E)-4-(2-((6-(1H-imidazol-1-yl)pyridin-3-yl)methylene)hydrazineyl)-7-chloroquinoline hydrochloride] | 4.01
Cc1ncn(-c2ccc(/C=N\Nc3ncnc4cc(Cl)ccc34)cn2)c1C [Compound 15, 7-chloro-4-(2-((6-(4,5-dimethyl-1H-imidazol-1-yl)pyridin-3-yl)methylene)hydrazineyl)quinazoline hydrochloride] | 3.01
C/C(=N\Nc1ncnc2cc(Cl)ccc12)c1ccc(-n2cnc(C)c2C)nc1 [Compound 16, 7-chloro-4-(2-(1-(6-(4,5-dimethyl-1H-imidazol-1-yl)pyridin-3-yl)ethylidene)hydrazineyl)quinazoline phosphate] | 2.11
C/C(=N\Nc1ncnc2cc(Cl)ccc12)c1ccc(-n2cc[n+](C)c2)nc1 [Compound 17, (E)-1-(5-(1-(2-(7-chloroquinazolin-4-yl)hydrazineylidene)ethyl)pyridin-2-yl)-3-methyl-1H-imidazol-3-ium iodide phosphoric acid salt] | 22.5
CC(=NNc1ccnc2cc(Cl)ccc12)c1ccc(-n2cnc(C)c2C)nc1 [Compound 22, 7-chloro-4-(2-(1-(6-(4,5-dimethyl-1H-imidazol-1-yl)pyridin-3-yl)ethylidene)hydrazineyl)quinoline] | 12.2
Cc1ncn(-c2ccc(Nc3ncnc4cc(Cl)ccc34)cn2)c1C [Compound 25, 7-chloro-N-(6-(4,5-dimethyl-1H-imidazol-1-yl)pyridin-3-yl)quinazolin-4-amine] | 11.5
C/C(=N\Nc1ncnc2cc(F)ccc12)c1ccc(-n2cc[n+](C)c2)nc1 [Compound 26, (E)-1-(5-(1-(2-(7-fluoroquinazolin-4-yl)hydrazineylidene)ethyl)pyridin-2-yl)-3-methyl-1H-imidazol-3-ium phosphoric acid salt] | 27.2
Clc1ccc2c(Nc3ccc(-n4cncn4)nc3)ncnc2c1 [Compound 34, N-(6-(1H-1,2,4-triazol-1-yl)pyridin-3-yl)-7-chloroquinazolin-4-amine phosphoric acid salt] | 3.67
Fc1cc(/C=N/Nc2ccnc3cc(Cl)ccc23)ccc1-n1ccnc1 [Compound 35, (E)-7-chloro-4-(2-(3-fluoro-4-(1H-imidazol-1-yl)benzylidene)hydrazineyl)quinoline hydrochloride] | 13.1
CC(=NNc1ccnc2cc(Cl)ccc12)c1ccc(-n2ccnc2)cc1 [Compound 36, 4-(2-(1-(4-(1H-imidazol-1-yl)phenyl)ethylidene)hydrazineyl)-7-chloroquinoline phosphate] | 48.6
Clc1ccc2c(N/N=C/c3ccc(-n4ccnc4)cc3)ccnc2c1 [Compound 38, 4-(2-(4-(1H-imidazol-1-yl)benzylidene)hydrazineyl)-7-chloroquinoline dihydrochloride] | 6.17
Cc1ncn(-c2ncc(Nc3ncnc4cc(Cl)ccc34)cc2O)c1C [Compound 40, 5-((7-chloroquinazolin-4-yl)amino)-2-(4,5-dimethyl-1H-imidazol-1-yl)pyridin-3-ol phosphoric acid salt] | 5.28
Clc1ccc2c(Nc3ccc(-n4cncn4)nc3)ccnc2c1 [Compound 44, N-(6-(1H-1,2,4-triazol-1-yl)pyridin-3-yl)-7-chloroquinolin-4-amine] | 26.2

same assay, conditions: TDP-43, purified human brain membranes; read-out: TDP43/Membrane Activity (IC-50)

IC50 [µM] | Compound
3.42 | Cc1cc(-n2ccnc2)ccc1/C=N/Nc1ccnc2cc(Cl)ccc12 [Compound 1, (E)-4-((E)-(4-(1H-imidazol-1-yl)-2-methylbenzylidene)hydrazono)-7-chloro-1,4-dihydroquinoline]
7.12 | C/C(=N\Nc1ncnc2cc(F)ccc12)c1ccc(-n2cnc(C)c2C)nc1 [Compound 21, (E)-4-(2-(1-(6-(4,5-dimethyl-1H-imidazol-1-yl)pyridin-3-yl)ethylidene)hydrazineyl)-7-fluoroquinazoline]
8.93 | CC(=NNc1ncnc2cc(Cl)ccc12)c1ccnc(-n2cnc(C)c2C)c1 [Compound 28, 7-chloro-4-(2-(1-(2-(4,5-dimethyl-1H-imidazol-1-yl)pyridin-4-yl)ethylidene)hydrazineyl)quinazoline]
8.32 | Clc1ccc2c(Nc3ccc(-n4ccnc4)nc3)ncnc2c1 [Compound 41, N-(6-(1H-imidazol-1-yl)pyridin-3-yl)-7-chloroquinazolin-4-amine]

Compound | IC50 [µM]
C/C(=N\Nc1ncnc2cc(Cl)ccc12)c1ccc(-n2cc(C)nc2C)nc1 [Compound 18, (E)-7-chloro-4-(2-(1-(6-(2,4-dimethyl-1H-imidazol-1-yl)pyridin-3-yl)ethylidene)hydrazineyl)quinazoline phosphoric acid salt] | 9.28
C/C(=N\Nc1nncc2cc(Cl)ccc12)c1ccc(-n2cc(C)nc2C)nc1 [Compound 24, (E)-6-chloro-1-(2-(1-(6-(2,4-dimethyl-1H-imidazol-1-yl)pyridin-3-yl)ethylidene)hydrazineyl)phthalazine] | 4
C/C(=N\Nc1ncnc2cc(Cl)ccc12)c1ccc(-n2cc(C)nc2C)nc1 [Compound 27, (E)-7-chloro-4-(2-(1-(6-(2,4-dimethyl-1H-imidazol-1-yl)pyridin-3-yl)ethylidene)hydrazineyl)quinazoline hydrochloride] | 2.98

— patent US20240398783A1, “Compounds and Pharmaceutical Compositions Comprising Inhibitors of Amyloid Peptide Interactions with Glycosaminoglycans, Methods of Treatment and Use Thereof” (Gismo Therapeutics, Inc., priority 2021, published 2024)
